In ChEMBL document CHEMBL2040827, “Quinolizidinone carboxylic acids as CNS penetrant, selective m1 allosteric muscarinic receptor modulators” (ACS Med Chem Lett, 2010):
pIC50: −log10 of the molar value. Active and inactive are the calls of the source. No cut-off for these calls is given here.

Columns and labels:
[1] = target: MDR1a (multidrug resistance protein 1a) (Rattus norvegicus, UniProt Q6PSM0); experiment: Efflux ratio of the compound assessed as ratio of rat MDR1a-mediated permeability from basolateral to apical over apical to basolateral side of drug transport; assay type: ADME; settings: not told
Sequence of MDR1a (multidrug resistance protein 1a) (Q6PSM0 whole entry): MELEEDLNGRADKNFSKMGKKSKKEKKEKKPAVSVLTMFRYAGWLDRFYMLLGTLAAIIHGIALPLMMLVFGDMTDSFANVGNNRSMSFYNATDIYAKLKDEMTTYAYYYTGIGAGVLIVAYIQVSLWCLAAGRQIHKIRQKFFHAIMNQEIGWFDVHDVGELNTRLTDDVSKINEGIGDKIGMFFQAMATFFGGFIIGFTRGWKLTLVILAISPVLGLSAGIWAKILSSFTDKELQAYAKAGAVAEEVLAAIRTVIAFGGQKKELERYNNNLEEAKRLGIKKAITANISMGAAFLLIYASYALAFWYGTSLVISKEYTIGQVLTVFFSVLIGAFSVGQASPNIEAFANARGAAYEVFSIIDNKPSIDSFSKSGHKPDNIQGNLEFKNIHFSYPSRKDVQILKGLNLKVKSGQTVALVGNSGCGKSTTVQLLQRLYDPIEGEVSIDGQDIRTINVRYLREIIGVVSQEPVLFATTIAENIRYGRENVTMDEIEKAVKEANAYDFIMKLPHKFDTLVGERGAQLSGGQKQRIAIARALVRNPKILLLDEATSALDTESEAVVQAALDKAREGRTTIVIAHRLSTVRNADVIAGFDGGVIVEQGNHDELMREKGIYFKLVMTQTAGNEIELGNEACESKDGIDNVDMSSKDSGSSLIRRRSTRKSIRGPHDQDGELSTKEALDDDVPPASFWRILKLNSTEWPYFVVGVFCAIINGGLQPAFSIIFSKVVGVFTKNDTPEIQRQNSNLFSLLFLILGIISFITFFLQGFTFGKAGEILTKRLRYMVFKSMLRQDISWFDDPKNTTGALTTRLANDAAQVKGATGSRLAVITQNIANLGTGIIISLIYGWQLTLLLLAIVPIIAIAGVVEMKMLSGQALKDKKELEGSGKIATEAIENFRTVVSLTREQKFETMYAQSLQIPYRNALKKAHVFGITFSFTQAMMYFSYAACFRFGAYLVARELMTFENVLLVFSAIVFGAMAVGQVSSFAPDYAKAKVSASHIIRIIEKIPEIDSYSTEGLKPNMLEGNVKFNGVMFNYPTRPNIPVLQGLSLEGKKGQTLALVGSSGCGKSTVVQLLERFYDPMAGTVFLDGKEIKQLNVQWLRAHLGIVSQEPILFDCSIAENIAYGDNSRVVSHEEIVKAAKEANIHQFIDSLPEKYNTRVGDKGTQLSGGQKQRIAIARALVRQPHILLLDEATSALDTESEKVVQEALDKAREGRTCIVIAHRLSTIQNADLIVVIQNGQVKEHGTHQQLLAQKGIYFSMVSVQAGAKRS

[2] = (§1) Protein binding in rat plasma; assay type: ADME, cell-free; settings: read-out: PPB (converted)
[3] = target: T1, Muscarinic acetylcholine receptor M1 (Homo sapiens) (UniProt P11229); experiment: Positive allosteric modulation of human muscarinic M1 receptor expressed in CHO-NFAT cells assessed as potentiation of acetylcholine-induced calcium flux after 1 hr by FLIPR assay relative to control; assay type: functional, cell-based; design: concentration or dose not given beside the values
T1 sequence (whole entry): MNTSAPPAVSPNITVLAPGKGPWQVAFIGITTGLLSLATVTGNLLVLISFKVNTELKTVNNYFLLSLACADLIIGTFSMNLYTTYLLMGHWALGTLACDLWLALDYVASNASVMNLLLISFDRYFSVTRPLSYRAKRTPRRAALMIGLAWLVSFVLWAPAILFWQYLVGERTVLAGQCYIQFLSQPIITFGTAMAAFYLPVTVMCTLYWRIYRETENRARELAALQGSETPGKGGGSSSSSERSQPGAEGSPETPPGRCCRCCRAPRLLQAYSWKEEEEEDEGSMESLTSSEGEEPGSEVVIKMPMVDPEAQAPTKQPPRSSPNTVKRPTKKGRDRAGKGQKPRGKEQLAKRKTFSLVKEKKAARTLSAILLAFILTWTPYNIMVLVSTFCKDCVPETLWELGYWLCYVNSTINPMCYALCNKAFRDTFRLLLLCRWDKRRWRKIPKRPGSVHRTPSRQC

Cerebrospinal fluid = experiment: Drug uptake in Sprague-Dawley rat cerebrospinal fluid at 10 mg/kg, po; assay type: ADME, organism-based; design: dose 10 mg/kg, route oral; settings: in vivo, read-out: Drug uptake
[4] = target: T1, Muscarinic acetylcholine receptor M1 (Homo sapiens); experiment: Positive allosteric modulation of human muscarinic M1 receptor expressed in CHO-NFAT cells assessed as potentiation of acetylcholine-induced calcium flux after 1 hr by FLIPR assay; assay type: functional, cell-based
Plasma [5] = experiment: Plasma concentration in Sprague-Dawley rat at 10 mg/kg, po; assay type: ADME, organism-based; design: dose 10 mg/kg, route oral; settings: in vivo
P-glycoprotein = experiment: Passive permeability of the compound assessed as P-glycoprotein-mediated drug transport; assay type: ADME; settings: not told
Brain = experiment: Drug uptake in Sprague-Dawley rat brain at 10 mg/kg, po; assay type: ADME, organism-based; design: dose 10 mg/kg, route oral; settings: in vivo, read-out: Drug uptake
[6] = Ratio of drug level in brain to plasma in Sprague-Dawley rat at 10 mg/kg, po; assay type: ADME, organism-based; design: dose 10 mg/kg, route oral; settings: read-out: BPR
[7] = (§2) Protein binding in human plasma; assay type: ADME, cell-free; settings: read-out: PPB (converted)
[8] = Ratio of drug uptake in Sprague-Dawley rat cerebrospinal fluid at 10 mg/kg, po to protein binding in rat plasma; assay type: ADME, organism-based, CSF/Plasma; design: dose 10 mg/kg, route oral; settings: in vivo
[9] = target: MDR1 (P-glycoprotein, ABCB1) (Homo sapiens, UniProt P08183); experiment: Efflux ratio of the compound assessed as ratio of human MDR1-mediated permeability from basolateral to apical over apical to basolateral side of drug transport; assay type: ADME; settings: not told
Sequence of MDR1 (P-glycoprotein, ABCB1) (P08183 whole entry): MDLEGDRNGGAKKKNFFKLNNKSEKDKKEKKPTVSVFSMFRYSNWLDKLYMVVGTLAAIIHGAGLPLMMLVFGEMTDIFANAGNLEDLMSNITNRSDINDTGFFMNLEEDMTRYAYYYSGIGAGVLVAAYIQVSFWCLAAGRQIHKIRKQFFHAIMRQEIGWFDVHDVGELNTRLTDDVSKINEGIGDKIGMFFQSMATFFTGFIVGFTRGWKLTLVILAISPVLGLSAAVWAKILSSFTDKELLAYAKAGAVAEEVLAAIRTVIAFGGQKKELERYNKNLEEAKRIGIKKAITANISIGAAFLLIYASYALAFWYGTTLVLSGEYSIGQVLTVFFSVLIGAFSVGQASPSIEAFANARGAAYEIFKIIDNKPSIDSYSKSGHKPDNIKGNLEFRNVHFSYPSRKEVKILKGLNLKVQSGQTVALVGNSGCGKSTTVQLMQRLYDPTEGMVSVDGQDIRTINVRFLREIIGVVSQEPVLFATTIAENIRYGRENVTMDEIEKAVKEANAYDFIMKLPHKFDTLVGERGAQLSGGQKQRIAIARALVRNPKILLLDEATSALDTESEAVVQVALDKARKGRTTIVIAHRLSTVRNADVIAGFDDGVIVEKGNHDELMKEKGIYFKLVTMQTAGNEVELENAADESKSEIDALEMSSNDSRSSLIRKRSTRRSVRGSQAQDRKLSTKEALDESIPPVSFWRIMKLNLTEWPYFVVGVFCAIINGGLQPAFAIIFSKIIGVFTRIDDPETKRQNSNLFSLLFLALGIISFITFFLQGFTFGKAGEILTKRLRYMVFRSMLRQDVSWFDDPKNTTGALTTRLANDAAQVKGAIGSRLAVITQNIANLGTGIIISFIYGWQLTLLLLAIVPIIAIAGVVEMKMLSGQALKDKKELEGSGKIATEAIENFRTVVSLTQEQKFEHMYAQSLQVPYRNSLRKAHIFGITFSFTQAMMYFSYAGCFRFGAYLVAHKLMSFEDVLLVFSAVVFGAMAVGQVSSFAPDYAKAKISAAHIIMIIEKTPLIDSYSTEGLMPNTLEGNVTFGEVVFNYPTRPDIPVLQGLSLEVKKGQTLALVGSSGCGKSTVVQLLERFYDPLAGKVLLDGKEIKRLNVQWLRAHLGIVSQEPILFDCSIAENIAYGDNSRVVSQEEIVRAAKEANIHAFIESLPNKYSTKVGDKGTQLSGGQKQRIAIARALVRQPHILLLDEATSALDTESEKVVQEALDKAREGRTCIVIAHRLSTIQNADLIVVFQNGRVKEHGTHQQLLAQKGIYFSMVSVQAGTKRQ

[10] = target: Voltage-gated inwardly rectifying potassium channel KCNH2 (Homo sapiens, UniProt Q12809); experiment: Inhibition of human ERG
Sequence of Voltage-gated inwardly rectifying potassium channel KCNH2 (Q12809 whole entry): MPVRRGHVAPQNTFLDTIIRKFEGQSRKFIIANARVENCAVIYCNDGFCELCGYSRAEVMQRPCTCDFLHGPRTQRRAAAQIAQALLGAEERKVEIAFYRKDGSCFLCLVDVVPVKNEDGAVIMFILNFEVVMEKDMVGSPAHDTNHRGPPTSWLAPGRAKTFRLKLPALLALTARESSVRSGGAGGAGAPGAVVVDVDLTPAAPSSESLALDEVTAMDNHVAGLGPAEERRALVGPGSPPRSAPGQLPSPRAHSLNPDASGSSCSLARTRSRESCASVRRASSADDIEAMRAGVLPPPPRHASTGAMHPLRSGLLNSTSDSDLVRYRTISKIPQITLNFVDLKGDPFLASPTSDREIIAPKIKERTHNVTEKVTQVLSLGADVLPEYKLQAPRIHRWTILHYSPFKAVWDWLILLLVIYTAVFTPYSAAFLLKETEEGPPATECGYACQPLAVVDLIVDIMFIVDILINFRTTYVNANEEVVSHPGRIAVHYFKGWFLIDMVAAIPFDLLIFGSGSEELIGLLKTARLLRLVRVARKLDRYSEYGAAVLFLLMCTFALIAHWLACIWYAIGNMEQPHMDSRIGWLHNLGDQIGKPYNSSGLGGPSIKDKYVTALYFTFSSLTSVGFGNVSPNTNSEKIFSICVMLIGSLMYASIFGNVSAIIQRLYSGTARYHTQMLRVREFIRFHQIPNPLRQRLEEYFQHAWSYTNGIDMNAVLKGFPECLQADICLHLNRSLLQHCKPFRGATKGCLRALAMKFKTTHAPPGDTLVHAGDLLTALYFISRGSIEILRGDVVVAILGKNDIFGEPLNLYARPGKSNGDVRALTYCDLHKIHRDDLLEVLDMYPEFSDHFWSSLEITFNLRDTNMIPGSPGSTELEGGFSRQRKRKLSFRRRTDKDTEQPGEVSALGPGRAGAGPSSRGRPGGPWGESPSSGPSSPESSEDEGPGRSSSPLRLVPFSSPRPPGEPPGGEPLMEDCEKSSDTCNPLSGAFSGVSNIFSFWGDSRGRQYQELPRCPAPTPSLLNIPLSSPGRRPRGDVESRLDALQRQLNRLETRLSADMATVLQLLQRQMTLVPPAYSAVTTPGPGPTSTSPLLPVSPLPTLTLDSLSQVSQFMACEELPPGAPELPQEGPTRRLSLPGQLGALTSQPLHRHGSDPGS

Plasma [11] = experiment: as §1; assay type: ADME, cell-free
Plasma [12] = experiment: as §2; assay type: ADME, cell-free
[13] = Clearance in dog at 10 mg/kg, po and 2 mg/kg, iv; assay type: ADME, organism-based, Canis lupus familiaris; settings: in vivo
Mus musculus [14] = experiment: Inhibition of scopolamine-induced memory deficit in ip dosed contextual fear conditioning memory model of mouse by measuring freezing behavior after 24 hrs […] relative to control; assay type: functional, organism-based
Mus musculus [15] = experiment: Inhibition of scopolamine-induced memory deficit in contextual fear conditioning memory model of mouse by measuring freezing behavior at 30 mg/kg, ip at 7.4 uM of plasma concentration after 24 hrs […] relative to control; assay type: functional, organism-based; design: dose 30 mg/kg
[16] = Oral bioavailability in dog at 10 mg/kg; assay type: ADME, organism-based, Canis lupus familiaris; settings: in vivo
Mus musculus [17] = experiment: Inhibition of scopolamine-induced memory deficit in ip dosed contextual fear conditioning memory model of mouse by measuring freezing behavior at 33 uM of plasma concentration after 24 hrs […] relative to control; assay type: functional, organism-based
[18] = Half life in dog at 10 mg/kg, po and 2 mg/kg, iv; assay type: ADME, organism-based, Canis lupus familiaris; settings: in vivo
[19] = target: T2, Muscarinic acetylcholine receptor M2 (Homo sapiens) (UniProt P08172); experiment: Antagonist activity at human muscarinic M2 receptor expressed in CHO-NFAT cells assessed as inhibition of acetylcholine-induced calcium flux at up to 100 uM after 1 hr by FLIPR assay; assay type: functional, cell-based
T2 sequence (whole entry): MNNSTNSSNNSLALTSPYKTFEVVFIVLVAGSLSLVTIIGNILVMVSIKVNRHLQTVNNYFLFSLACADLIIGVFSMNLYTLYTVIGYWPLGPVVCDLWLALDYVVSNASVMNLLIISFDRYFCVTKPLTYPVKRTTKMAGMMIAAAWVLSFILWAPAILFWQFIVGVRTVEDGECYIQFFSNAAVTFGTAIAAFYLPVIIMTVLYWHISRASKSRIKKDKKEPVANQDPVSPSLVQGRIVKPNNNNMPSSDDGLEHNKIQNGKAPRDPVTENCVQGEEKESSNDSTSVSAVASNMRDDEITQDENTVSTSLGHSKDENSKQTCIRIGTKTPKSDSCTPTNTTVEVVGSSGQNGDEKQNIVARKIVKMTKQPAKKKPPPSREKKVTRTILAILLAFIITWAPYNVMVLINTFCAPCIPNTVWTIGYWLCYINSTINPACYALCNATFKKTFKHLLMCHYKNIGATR

[20] = target: T3, Muscarinic acetylcholine receptor M4 (Homo sapiens) (UniProt P08173); experiment: Agonist activity at human muscarinic M4 receptor expressed in CHO-NFAT cells assessed as potentiation of acetylcholine-induced calcium flux at up to 100 uM after 1 hr by FLIPR assay; assay type: functional, cell-based
T3 sequence (whole entry): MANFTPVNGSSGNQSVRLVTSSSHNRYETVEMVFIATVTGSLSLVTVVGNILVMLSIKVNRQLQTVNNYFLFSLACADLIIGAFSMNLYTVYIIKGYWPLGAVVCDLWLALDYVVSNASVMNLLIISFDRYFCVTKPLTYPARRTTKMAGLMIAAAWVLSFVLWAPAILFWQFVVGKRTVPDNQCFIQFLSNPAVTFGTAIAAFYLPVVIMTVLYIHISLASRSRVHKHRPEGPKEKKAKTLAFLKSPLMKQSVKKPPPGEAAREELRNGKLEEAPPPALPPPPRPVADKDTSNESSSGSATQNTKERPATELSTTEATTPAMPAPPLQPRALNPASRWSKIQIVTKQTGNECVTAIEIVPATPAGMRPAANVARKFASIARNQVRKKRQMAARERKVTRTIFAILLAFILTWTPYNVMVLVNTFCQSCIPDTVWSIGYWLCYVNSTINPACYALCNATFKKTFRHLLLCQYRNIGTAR

[21] = target: T2, Muscarinic acetylcholine receptor M2 (Homo sapiens); experiment: Agonist activity at human muscarinic M2 receptor expressed in CHO-NFAT cells assessed as potentiation of acetylcholine-induced calcium flux at up to 100 uM after 1 hr by FLIPR assay; assay type: functional, cell-based
[22] = Oral bioavailability in Sprague-Dawley rat at 10 mg/kg; assay type: ADME, organism-based; settings: in vivo
[23] = target: Muscarinic acetylcholine receptor M3 (Homo sapiens) (UniProt P20309); experiment: Antagonist activity at human muscarinic M3 receptor expressed in CHO-NFAT cells assessed as inhibition of acetylcholine-induced calcium flux at up to 100 uM after 1 hr by FLIPR assay; assay type: functional, cell-based
Sequence of Muscarinic acetylcholine receptor M3 (Homo sapiens) (P20309 whole entry, looked up): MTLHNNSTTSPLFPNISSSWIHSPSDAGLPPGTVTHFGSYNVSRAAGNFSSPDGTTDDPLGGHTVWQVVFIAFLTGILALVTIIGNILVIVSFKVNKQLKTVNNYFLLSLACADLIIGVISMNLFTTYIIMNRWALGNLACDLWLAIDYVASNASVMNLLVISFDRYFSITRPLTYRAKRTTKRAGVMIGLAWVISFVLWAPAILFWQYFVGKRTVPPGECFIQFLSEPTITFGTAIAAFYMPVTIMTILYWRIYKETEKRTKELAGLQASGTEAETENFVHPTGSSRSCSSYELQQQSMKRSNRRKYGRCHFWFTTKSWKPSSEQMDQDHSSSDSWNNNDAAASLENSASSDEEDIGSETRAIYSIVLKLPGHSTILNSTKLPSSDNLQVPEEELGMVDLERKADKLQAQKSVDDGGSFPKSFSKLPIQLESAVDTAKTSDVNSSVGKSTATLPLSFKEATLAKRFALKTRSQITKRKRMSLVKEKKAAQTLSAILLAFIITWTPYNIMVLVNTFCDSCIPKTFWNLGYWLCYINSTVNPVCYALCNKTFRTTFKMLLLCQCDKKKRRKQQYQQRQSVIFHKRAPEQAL

[24] = target: Muscarinic acetylcholine receptor M3 (Homo sapiens) (UniProt P20309); experiment: Agonist activity at human muscarinic M3 receptor expressed in CHO-NFAT cells assessed as potentiation of acetylcholine-induced calcium flux at up to 100 uM after 1 hr by FLIPR assay; assay type: functional, cell-based
[25] = Half life in Sprague-Dawley rat at 10 mg/kg, po and 2 mg/kg, iv; assay type: ADME, organism-based; settings: in vivo
[26] = Clearance in Sprague-Dawley rat at 10 mg/kg, po and 2 mg/kg, iv; assay type: ADME, organism-based; settings: in vivo
[27] = target: T1, Muscarinic acetylcholine receptor M1 (Homo sapiens); experiment: Agonist activity at human muscarinic M1 receptor expressed in CHO-NFAT cells assessed as effect on calcium flux up to 10 uM after 1 hr by FLIPR assay; assay type: functional, cell-based
[28] = target: T3, Muscarinic acetylcholine receptor M4 (Homo sapiens); experiment: Antagonist activity at human muscarinic M4 receptor expressed in CHO-NFAT cells assessed as inhibition of acetylcholine-induced calcium flux at up to 100 uM after 1 hr by FLIPR assay; assay type: functional, cell-based
[29] = Fraction unbound in rat plasma; assay type: ADME, cell-free
[30] = Fraction unbound in human plasma; assay type: ADME, cell-free

SMILES: O=C(O)c1cc(CN2CCN(c3ccc(C(F)(F)F)cc3)CC2)c2ccccn2c1=O
- efflux ratio [1]: 1.3
- fraction unbound [2]: 0.034
- Activity [3]: 67%
- concentration (Cerebrospinal fluid): 14 nM
- Activity [4]: 0.27 µM
- concentration (Plasma [5]): 1140 nM
- Papp (P-glycoprotein): 32 ×10⁻⁶ cm/s
- concentration (Brain): 3080 nM
- Kp [6]: 2.7
- fraction unbound [7]: 0.049
- Ratio [8]: 0.25
- efflux ratio [9]: 1.4
- pIC50 [10]: 7.00

SMILES: O=C(O)c1cc(C(O)c2ccccc2)c2ccccn2c1=O (stereo unspecified)
- Activity [4]: > 100 µM

SMILES: O=C(O)c1cc(CN2CCC(c3ccccc3)C2)c2ccccn2c1=O (stereo unspecified)
- Activity [4]: > 100 µM

SMILES: O=C(O)c1cc(CN2CCN(c3ccccc3)C(=O)C2)c2ccccn2c1=O
- fraction unbound [2]: 0.62
- Activity [3]: 89%
- Activity [4]: 1.1 µM
- fraction unbound [7]: 0.479

SMILES: O=C(O)c1cc(Cc2ccc(-c3ccccc3)cc2)c2ccccn2c1=O
- PPB (Plasma [11]): ND(Insoluble)
- Activity [3]: 86%
- Activity [4]: 0.11 µM
- PPB (Plasma [12]): ND(Insoluble)

SMILES: N#Cc1ccc(N2CCN(Cc3cc(C(=O)O)c(=O)n4ccccc34)CC2)cc1
- clearance [13]: 13 mL/min/kg
- inhibition (Mus musculus [14]): Dose-dependent effect
- inhibition (Mus musculus [15]): Active
- bioavailability [16]: 33%
- efflux ratio [1]: 1.9
- inhibition (Mus musculus [17]): Active
- half-life [18]: 2.5 h
- inhibition [19]: inactive
- fraction unbound [2]: 0.062
- Activity [20]: inactive
- Activity [3]: 94%
- concentration (Cerebrospinal fluid): 85 nM
- Activity [21]: inactive
- Activity [4]: 0.52 µM
- concentration (Plasma [5]): 1500 nM
- bioavailability [22]: 23%
- inhibition [23]: inactive
- Papp (P-glycoprotein): 22 ×10⁻⁶ cm/s
- Activity [24]: inactive
- concentration (Brain): 248 nM
- Kp [6]: 0.17
- half-life [25]: 6.4 h
- fraction unbound [7]: 0.134
- clearance [26]: 10.8 mL/min/kg
- Ratio [8]: 0.42
- efflux ratio [9]: 0.7
- pIC50 [10]: 5.13
- Activity [27]: inactive
- inhibition [28]: inactive

SMILES: O=C(O)c1cc(CN2CCN(c3ccc(Br)cc3)CC2)c2ccccn2c1=O
- efflux ratio [1]: 0.6
- fraction unbound [29]: 0.04
- fraction unbound [2]: 0.039
- Activity [3]: 77%
- concentration (Cerebrospinal fluid): 70 nM
- Activity [4]: 0.13 µM
- concentration (Plasma [5]): 3650 nM
- Papp (P-glycoprotein): 16 ×10⁻⁶ cm/s
- concentration (Brain): 4580 nM
- Kp [6]: 1.3
- fraction unbound [7]: 0.065
- Ratio [8]: 0.32
- efflux ratio [9]: 0.1
- pIC50 [10]: 5.68

SMILES: O=C(O)c1cc(Cc2ccc(Cl)cc2)c2ccccn2c1=O
- Activity [3]: 93%
- Activity [4]: 0.2 µM

SMILES: O=C(O)c1cc(CN2CCN(c3ccccc3)CC2)c2ccccn2c1=O
- fraction unbound [29]: > 0.25
- fraction unbound [2]: 0.369
- Activity [3]: 52%
- Activity [4]: 0.93 µM
- fraction unbound [30]: > 0.25
- fraction unbound [7]: 0.26

SMILES: COc1ccc(Cn2cc(C(=O)O)c(=O)c3ccccc32)cc1
- inhibition (Mus musculus [17]): inactive

SMILES: O=C(O)c1cc(CN2CCN(c3ccncc3)CC2)c2ccccn2c1=O
- Activity [3]: 86%
- concentration (Cerebrospinal fluid): 16 nM
- Activity [4]: 1.5 µM
- concentration (Plasma [5]): 2070 nM
- Papp (P-glycoprotein): < 5 ×10⁻⁶ cm/s
- concentration (Brain): 59 nM
- Kp [6]: 0.03
- Ratio [8]: 0.02

SMILES: O=C(O)c1cc(Cc2ccccc2)c2ccccn2c1=O
- Activity [3]: 81%
- Activity [4]: 0.92 µM

SMILES: O=C(O)c1cc(C(=O)c2ccccc2)c2ccccn2c1=O
- Activity [4]: > 100 µM

SMILES: O=C(O)c1cc(Cc2ccc(-c3ccccn3)cc2)c2ccccn2c1=O
- Activity [3]: 78%
- Activity [4]: 0.061 µM

SMILES: O=C(O)c1cc(Cc2ccc(-c3cccnc3)cc2)c2ccccn2c1=O
- fraction unbound [2]: 0.015
- Activity [3]: 74%
- Activity [4]: 0.075 µM
- fraction unbound [7]: 0.003

SMILES: O=C(O)c1cc(CN2CCCCC2)c2ccccn2c1=O
- Activity [3]: 87%
- Activity [4]: 7.6 µM

SMILES: O=C(O)c1cc(CN2CCC(c3ccccc3)CC2)c2ccccn2c1=O
- Activity [3]: 58%
- Activity [4]: 1.3 µM
